Values after ≈ are worked out from the molar mass of the structure shown. Active and inactive are the calls of the source. The rule behind the calls is not given here.
Legend:
Staphylococcus capitis [1] = assay: Antibacterial activity against methicillin resistant coagulase-negative Staphylococcus capitis clinical isolate by broth microdilution method; assay type: functional
[2] = system: Staphylococcus haemolyticus; assay: Antibacterial activity against methicillin resistant coagulase-negative Staphylococcus haemolyticus clinical isolate assessed as susceptibility level by broth microdilution method; assay type: functional
[3] = system: Streptococcus intermedius; assay: Antibacterial activity against Streptococcus intermedius clinical isolate assessed as susceptibility level by broth microdilution method; assay type: functional
[4] = system: Streptococcus constellatus; assay: Antibacterial activity against Streptococcus constellatus clinical isolate assessed as susceptibility level by broth microdilution method; assay type: functional
[5] = system: Staphylococcus epidermidis; assay: Antibacterial activity against methicillin resistant Staphylococcus epidermidis clinical isolate assessed as susceptibility level by broth microdilution method; assay type: functional
Streptococcus pneumoniae [6] = assay: Antibacterial activity against multidrug-resistant Streptococcus pneumoniae clinical isolate assessed as susceptibility level by broth microdilution method; assay type: functional
Streptococcus pneumoniae [7] = assay: Antibacterial activity against penicillin resistant Streptococcus pneumoniae clinical isolate by broth microdilution method; assay type: functional
Streptococcus mitis [8] = assay: Antibacterial activity against Streptococcus mitis clinical isolate by broth microdilution method; assay type: functional
Streptococcus viridans [9] = assay: Antibacterial activity against Streptococcus viridans clinical isolate assessed as susceptibility level by broth microdilution method; assay type: functional
Staphylococcus aureus [10] = assay: Antibacterial activity against methicillin resistant Staphylococcus aureus clinical isolate assessed as susceptibility level by broth microdilution method; assay type: functional
Streptococcus viridans [11] = assay: Antibacterial activity against Streptococcus viridans clinical isolate by broth microdilution method; assay type: functional
[12] = system: Staphylococcus saprophyticus; assay: Antibacterial activity against methicillin resistant coagulase-negative Staphylococcus saprophyticus clinical isolate by broth microdilution method; assay type: functional
Streptococcus oralis [13] = assay: Antibacterial activity against Streptococcus oralis clinical isolate by broth microdilution method; assay type: functional
Streptococcus pneumoniae [14] = assay: Antibacterial activity against penicillin intermediate Streptococcus pneumoniae clinical isolate assessed as susceptibility level by broth microdilution method; assay type: functional
[15] = system: Staphylococcus haemolyticus; assay: Antibacterial activity against methicillin resistant coagulase-negative Staphylococcus haemolyticus clinical isolate by broth microdilution method; assay type: functional
[16] = system: Staphylococcus auricularis; assay: Antibacterial activity against methicillin resistant coagulase-negative Staphylococcus auricularis clinical isolate assessed as susceptibility level by broth microdilution method; assay type: functional
[17] = system: Staphylococcus auricularis; assay: Antibacterial activity against methicillin resistant coagulase-negative Staphylococcus auricularis clinical isolate by broth microdilution method; assay type: functional
Streptococcus oralis [18] = assay: Antibacterial activity against Streptococcus oralis clinical isolate assessed as susceptibility level by broth microdilution method; assay type: functional
Staphylococcus capitis [19] = assay: Antibacterial activity against methicillin resistant coagulase-negative Staphylococcus capitis clinical isolate assessed as susceptibility level by broth microdilution method; assay type: functional
Streptococcus pyogenes [20] = assay: Antibacterial activity against Streptococcus pyogenes group A clinical isolate by broth microdilution method; assay type: functional
Streptococcus agalactiae [21] = assay: Antibacterial activity against Streptococcus agalactiae group B clinical isolate by broth microdilution method; assay type: functional
[22] = system: Staphylococcus epidermidis; assay: Antibacterial activity against methicillin resistant Staphylococcus epidermidis clinical isolate by broth microdilution method; assay type: functional
Staphylococcus aureus [23] = assay: Antibacterial activity against methicillin resistant Staphylococcus aureus clinical isolate by broth microdilution method; assay type: functional
Streptococcus pyogenes [24] = assay: Antibacterial activity against Streptococcus pyogenes group A clinical isolate assessed as susceptibility level by broth microdilution method; assay type: functional
[25] = Antibacterial activity against methicillin resistant coagulase-negative Staphylococcus hominis subsp. novobiosepticus clinical isolate assessed as susceptibility level by broth microdilution method; assay type: functional
[26] = Antibacterial activity against methicillin resistant coagulase-negative Staphylococcus hominis subsp. novobiosepticus clinical isolate by broth microdilution method; assay type: functional
Streptococcus mitis [27] = assay: Antibacterial activity against Streptococcus mitis clinical isolate assessed as susceptibility level by broth microdilution method; assay type: functional
[28] = system: Streptococcus intermedius; assay: Antibacterial activity against Streptococcus intermedius clinical isolate by broth microdilution method; assay type: functional
[29] = system: Staphylococcus saprophyticus; assay: Antibacterial activity against methicillin resistant coagulase-negative Staphylococcus saprophyticus clinical isolate assessed as susceptibility level by broth microdilution method; assay type: functional
Streptococcus agalactiae [30] = assay: Antibacterial activity against Streptococcus agalactiae group B clinical isolate assessed as susceptibility level by broth microdilution method; assay type: functional
Streptococcus pneumoniae [31] = assay: Antibacterial activity against penicillin intermediate Streptococcus pneumoniae clinical isolate by broth microdilution method; assay type: functional
Streptococcus pneumoniae [32] = assay: Antibacterial activity against multidrug-resistant Streptococcus pneumoniae clinical isolate by broth microdilution method; assay type: functional
Streptococcus pneumoniae [33] = assay: Antibacterial activity against penicillin resistant Streptococcus pneumoniae clinical isolate assessed as susceptibility level by broth microdilution method; assay type: functional
[34] = system: Streptococcus constellatus; assay: Antibacterial activity against Streptococcus constellatus clinical isolate by broth microdilution method; assay type: functional
Enterococcus faecalis [35] = assay: Antibacterial activity against vancomycin resistant Enterococcus faecalis VanA clinical isolate assessed as susceptibility level by broth microdilution method; assay type: functional
Enterococcus faecium [36] = assay: Antibacterial activity against vancomycin resistant Enterococcus faecium VanA clinical isolate assessed as susceptibility level by broth microdilution method; assay type: functional
Enterococcus faecalis [37] = assay: Antibacterial activity against vancomycin resistant Enterococcus faecalis VanB clinical isolate by broth microdilution method; assay type: functional
Enterococcus faecalis [38] = assay: Antibacterial activity against vancomycin resistant Enterococcus faecalis VanB clinical isolate assessed as susceptibility level by broth microdilution method; assay type: functional
Enterococcus faecium [39] = assay: Antibacterial activity against vancomycin resistant Enterococcus faecium VanB clinical isolate assessed as susceptibility level by broth microdilution method; assay type: functional
Enterococcus faecium [40] = assay: Antibacterial activity against vancomycin resistant Enterococcus faecium VanA clinical isolate by broth microdilution method; assay type: functional
Enterococcus faecalis [41] = system: Enterococcus faecalis
Enterococcus faecalis [42] = assay: Antibacterial activity against vancomycin resistant Enterococcus faecalis VanA clinical isolate by broth microdilution method; assay type: functional
Enterococcus faecium [43] = assay: Antibacterial activity against vancomycin resistant Enterococcus faecium VanB clinical isolate by broth microdilution method; assay type: functional

CC[C@H]1OC(=O)[C@H](C)[C@@H](O[C@H]2C[C@@](C)(OC)[C@@H](O)[C@H](C)O2)[C@H](C)[C@@H](O[C@@H]2O[C@H](C)C[C@H](N(C)C)[C@H]2O)[C@](C)(O)C[C@@H](C)C(=O)[C@H](C)[C@@H](O)[C@]1(C)O [ERYTHROMYCIN]
MIC50 (Staphylococcus capitis [1]): > 16 µg/mL | MIC90 (Staphylococcus capitis [1]): > 16 µg/mL | Activity [2]: 18% | Activity [3]: 63% | Activity [4]: 63% | Activity [5]: 15% | Activity (Streptococcus pneumoniae [6]): 13% | MIC (Streptococcus pneumoniae [7]): 0.03 µg/mL (≈ 0.0409 µM) | MIC (Streptococcus mitis [8]): ≤ 0.015 µg/mL | MIC50 (Streptococcus mitis [8]): inactive | MIC90 (Streptococcus mitis [8]): inactive | Activity (Streptococcus viridans [9]): 63% | Activity (Staphylococcus aureus [10]): 2% | MIC (Streptococcus viridans [11]): ≤ 0.015 µg/mL | MIC50 (Streptococcus viridans [11]): inactive | MIC90 (Streptococcus viridans [11]): inactive | MIC50 [12]: > 16 µg/mL | MIC90 [12]: > 16 µg/mL | MIC (Streptococcus oralis [13]): ≤ 0.015 µg/mL | MIC50 (Streptococcus oralis [13]): inactive | MIC90 (Streptococcus oralis [13]): inactive | Activity (Streptococcus pneumoniae [14]): 42% | MIC50 [15]: > 16 µg/mL | MIC90 [15]: > 16 µg/mL | Activity [16]: 18% | MIC50 [17]: > 16 µg/mL | MIC90 [17]: > 16 µg/mL | Activity (Streptococcus oralis [18]): 63% | Activity (Staphylococcus capitis [19]): 18% | MIC50 (Streptococcus pyogenes [20]): 0.03 µg/mL (≈ 0.0409 µM) | MIC90 (Streptococcus pyogenes [20]): > 1 µg/mL | MIC50 (Streptococcus agalactiae [21]): 0.06 µg/mL (≈ 0.0818 µM) | MIC90 (Streptococcus agalactiae [21]): > 1 µg/mL | MIC50 [22]: > 16 µg/mL | MIC90 [22]: > 16 µg/mL | Activity (Staphylococcus aureus [23]): 2% | MIC50 (Staphylococcus aureus [23]; Staphylococcus aureus): > 16 µg/mL | MIC90 (Staphylococcus aureus [23]; Staphylococcus aureus): > 16 µg/mL | Activity (Streptococcus pyogenes [24]): 89% | Activity [25]: 18% | MIC50 [26]: > 16 µg/mL | MIC90 [26]: > 16 µg/mL | Activity (Streptococcus mitis [27]): 63% | MIC [28]: ≤ 0.015 µg/mL | MIC50 [28]: inactive | MIC90 [28]: inactive | Activity [29]: 18% | Activity (Streptococcus agalactiae [30]): 62% | MIC50 (Streptococcus pneumoniae [31]): > 1 µg/mL | MIC90 (Streptococcus pneumoniae [31]): > 1 µg/mL | MIC (Streptococcus pneumoniae [32]): 0.03 µg/mL (≈ 0.0409 µM) | Activity (Streptococcus pneumoniae [33]): 20% | MIC [34]: ≤ 0.015 µg/mL | MIC50 [34]: inactive | MIC90 [34]: inactive

CC1(C)S[C@@H]2[C@H](NC(=O)[C@H](N)c3ccccc3)C(=O)N2[C@H]1C(=O)O [AMPICILLIN]
Percent of isolates susceptible (Enterococcus faecalis [35]): 81% | Activity (Enterococcus faecium [36]): 0% | MIC (Enterococcus faecalis [37]): ≤ 0.25 µg/mL | Activity (Enterococcus faecalis [38]): 60% | Activity (Enterococcus faecium [39]): 22% | MIC50 (Enterococcus faecium [40]): 64 µg/mL (≈ 183 µM) | MIC90 (Enterococcus faecium [40]): 128 µg/mL (≈ 366 µM) | MIC50 (Enterococcus faecalis [41]): inactive | MIC90 (Enterococcus faecalis [41]): inactive | MIC50 (Enterococcus faecalis [42]): 1 µg/mL (≈ 2.86 µM) | MIC90 (Enterococcus faecalis [42]): 64 µg/mL (≈ 183 µM) | MIC50 (Enterococcus faecium [43]): 64 µg/mL (≈ 183 µM) | MIC90 (Enterococcus faecium [43]): 64 µg/mL (≈ 183 µM)

CO/N=C(\C(=O)N[C@@H]1C(=O)N2C(C(=O)O)=C(CSc3nc(=O)c(O)nn3C)CS[C@H]12)c1csc(N)n1 [CEFTRIAXONE]
Activity [3]: 75% | Activity [4]: 75% | Activity (Streptococcus pneumoniae [6]): 77% | MIC50 (Streptococcus pneumoniae [7]): 1 µg/mL (≈ 1.8 µM) | MIC90 (Streptococcus pneumoniae [7]): 2 µg/mL (≈ 3.61 µM) | MIC (Streptococcus mitis [8]): 0.03 µg/mL (≈ 0.0541 µM) | MIC50 (Streptococcus mitis [8]): inactive | MIC90 (Streptococcus mitis [8]): inactive | Activity (Streptococcus viridans [9]): 75% | MIC (Streptococcus viridans [11]): 0.03 µg/mL (≈ 0.0541 µM) | MIC50 (Streptococcus viridans [11]): inactive | MIC90 (Streptococcus viridans [11]): inactive | MIC (Streptococcus oralis [13]): 0.03 µg/mL (≈ 0.0541 µM) | MIC50 (Streptococcus oralis [13]): inactive | MIC90 (Streptococcus oralis [13]): inactive | Activity (Streptococcus pneumoniae [14]): 92% | Activity (Streptococcus oralis [18]): 75% | MIC (Streptococcus pyogenes [20]): ≤ 0.015 µg/mL | MIC50 (Streptococcus pyogenes [20]): ≤ 0.015 µg/mL | MIC90 (Streptococcus pyogenes [20]): 0.12 µg/mL (≈ 0.216 µM) | MIC50 (Streptococcus agalactiae [21]): 0.06 µg/mL (≈ 0.108 µM) | MIC90 (Streptococcus agalactiae [21]): 0.06 µg/mL (≈ 0.108 µM) | Activity (Streptococcus pyogenes [24]): 92% | Activity (Streptococcus mitis [27]): 75% | MIC [28]: 0.03 µg/mL (≈ 0.0541 µM) | MIC50 [28]: inactive | MIC90 [28]: inactive | Activity (Streptococcus agalactiae [30]): 96% | MIC50 (Streptococcus pneumoniae [31]): 0.5 µg/mL (≈ 0.902 µM) | MIC90 (Streptococcus pneumoniae [31]): 1 µg/mL (≈ 1.8 µM) | MIC50 (Streptococcus pneumoniae [32]): 1 µg/mL (≈ 1.8 µM) | MIC90 (Streptococcus pneumoniae [32]): 2 µg/mL (≈ 3.61 µM) | Activity (Streptococcus pneumoniae [33]): 73% | MIC [34]: 0.03 µg/mL (≈ 0.0541 µM) | MIC50 [34]: inactive | MIC90 [34]: inactive
